# Measurements as given in patent US6737383B1, “Herbicidal oxadiazolidines” (priority 1999, dated 2004).
# Tests used:
# rice = assay: Test B flood test rice; assay type: in vivo, Oryza sativa; conditions: Pre-emergence
# Procedure: (§1) At the same time, these crop and weed species were also treated with postemergence applications of test chemicals formulated in the same manner. Plants ranged in height from 2 to 18 cm (1- to 4-leaf stage) for postemergence treatments. Plant species in the flood test consisted of rice (Oryza sativa), smallflower flatsedge (Cyperus difformis), duck salad (Heteranthera limosa) and bamyardgrass (Echinochloa crus-galli) grown to the 2-leaf stage for testing. Treated plants and controls were maintained in a greenhouse for twelve to sixteen days, after which all species were compared to controls and visually evaluated. Plant response ratings, summarized in Table B, are based on a scale of 0 to 10 where 0 is no effect and 10 is complete control. A dash (−) response means no test result.
# smallflower flatsedge = assay: Test B flood test smallflower flatsedge; assay type: in vivo, Cyperus difformis; conditions: for Plant response rating, S. Flatsedge (0 to 10 scale, 0 is no effect, 10 is complete control): Rate 62 g/ha
# Procedure: as §1
# duck salad = assay: Test B flood test duck salad; assay type: in vivo, Heteranthera limosa; conditions: for Plant response rating, Ducksalad (0 to 10 scale, 0 is no effect, 10 is complete control): Rate 62 g/ha
# Outline: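 Read-out is a visual response score from 0 (no effect) to 10 (complete control), assigned by comparison with untreated controls. Treatment was applied at the 2-leaf stage, and plants stayed in the greenhouse for twelve to sixteen days before scoring.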
# bamyardgrass = assay: Test B flood test barnyardgrass; assay type: in vivo, Echinochloa crus-galli; conditions: for Plant response rating, Barnyardgrass (0 to 10 scale, 0 is no effect, 10 is complete control): Rate 62 g/ha
# Procedure: as §1
# corn = assay: Test B pre/postemergence corn; assay type: in vivo, Zea mays; conditions: Preemergence
# Outline: (§2)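 Herbicidal effect was estimated by eye on a ten-point control scale after plants spent twelve to sixteen days in a greenhouse following soil or foliar treatment. Foliar sprays targeted plants at one to four leaves; all doses were formulated in a non-phytotoxic solvent with surfactant.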
# sugar beet = assay: Test B pre/postemergence sugar beet; assay type: in vivo, Beta vulgaris; conditions: Preemergence
# Outline: as §2
# soybean = assay: Test B pre/postemergence soybean; assay type: in vivo, Glycine max; conditions: Preemergence
# Outline: as §2
# surinam grass = assay: Test B pre/postemergence surinam grass; assay type: in vivo, Brachiaria decumbens; conditions: Preemergence
# Outline: as §2
# blackgrass = assay: Test B pre/postemergence blackgrass; assay type: in vivo, Alopecurus myosuroides; conditions: Preemergence
# Outline: as §2
# cocklebur = assay: Test B pre/postemergence cocklebur; assay type: in vivo, Xanthium strumarium; conditions: Preemergence
# Outline: as §2
# velvetleaf = assay: Test B pre/postemergence velvetleaf; assay type: in vivo, Abutilon theophrasti; conditions: Preemergence
# Outline: as §2
# giant foxtail = assay: Test B pre/postemergence giant foxtail; assay type: in vivo, Setaria faberii; conditions: Preemergence
# Outline: as §2
# morningglory = assay: Test B pre/postemergence morningglory; assay type: in vivo, Ipomoea hederacea; conditions: Preemergence
# Outline: as §2
# crabgrass = assay: Test B pre/postemergence crabgrass; assay type: in vivo, Digitaria sanguinalis; conditions: Preemergence
# Outline: as §2
# bedstraw = assay: Test B pre/postemergence bedstraw; assay type: in vivo, Galium aparine; conditions: Preemergence
# Outline: as §2
# rape = assay: Test B pre/postemergence rape; assay type: in vivo, Brassica napus; conditions: Preemergence
# Outline: as §2
# wild oat = assay: Test B pre/postemergence wild oat; assay type: in vivo, Avena fatua; conditions: Preemergence
# Outline: as §2
# purple nutsedge = assay: Test B pre/postemergence purple nutsedge; assay type: in vivo, Cyperus rotundus; conditions: Preemergence
# Outline: as §2
# wheat = assay: Test B pre/postemergence wheat; assay type: in vivo, Triticum aestivum; conditions: Preemergence
# Outline: as §2
# pigweed = assay: Test B pre/postemergence pigweed; assay type: in vivo, Amaranthus retroflexus; conditions: Preemergence
# Outline: as §2
# [1] = flood test species, Pre-emergence, visual evaluation after twelve to sixteen days
# [2] = Rate 125 g/ha, Pre-emergence, flood test species, scale 0 to 10 where 0 is no effect and 10 is complete control
# [3] = Rate 250 g/ha, Pre-emergence, flood-test species, scale 0 to 10, 0 is no effect, 10 is complete control
# [4] = Rate 500 g/ha, Pre-emergence, flood test species, scale 0 to 10 (0 no effect, 10 complete control)
# [5] = Rate 62 g/ha, scale of 0 to 10 where 0 is no effect and 10 is complete control
# [6] = Rate 125 g/ha, scale of 0 to 10 where 0 is no effect and 10 is complete control
# [7] = Rate 250 g/ha, scale 0 to 10 (0 no effect, 10 complete control)
# [8] = Rate 500 g/ha, scale of 0 to 10 where 0 is no effect and 10 is complete control
# [9] = Rate 125 g/ha, under heading Pre-emergence, flood test species, visual evaluation after twelve to sixteen days
# [10] = Rate 250 g/ha, Pre-emergence (flood test species), scale 0 to 10, 0 is no effect, 10 is complete control
# [11] = Rate 500 g/ha, Pre-emergence section of Table B, 0 to 10 scale (0 no effect, 10 complete control)
structure (smiles),measurement,setting,value
Cc1cc(C)n(Cn2c(=O)on(C(=O)N(c3ccccc3)C(C)C)c2=O)n1 [Compound 346],"Plant response rating, Rice (0 to 10 scale, 0 is no effect, 10 is complete control)","rice; Rate 62 g/ha, flood test species, visual evaluation after twelve to sixteen days",0
same,Rice plant response rating,"rice; Rate 125 g/ha, flood test species, scale 0 to 10 where 0 is no effect and 10 is complete control",0
same,Rice plant response rating,"rice; Rate 250 g/ha, flood-test species, scale 0 to 10, 0 is no effect, 10 is complete control",0
same,Rice plant response rating,"rice; Rate 500 g/ha, flood test species, scale 0 to 10 (0 no effect, 10 complete control)",0
same,"Plant response rating, S. Flatsedge (0 to 10 scale, 0 is no effect, 10 is complete control)",smallflower flatsedge; [1],0
same,S. Flatsedge plant response rating,smallflower flatsedge; [2],0
same,S. Flatsedge plant response rating,smallflower flatsedge; [3],0
same,S. Flatsedge plant response rating,smallflower flatsedge; [4],0
same,"Plant response rating, Ducksalad (0 to 10 scale, 0 is no effect, 10 is complete control)",duck salad; [1],0
same,Ducksalad plant response rating,duck salad; [2],0
same,Ducksalad plant response rating,duck salad; [3],0
same,Ducksalad plant response rating,duck salad; [4],0
same,"Plant response rating, Barnyardgrass (0 to 10 scale, 0 is no effect, 10 is complete control)",bamyardgrass; [1],0
same,Barnyardgrass plant response rating,bamyardgrass; [2],0
same,Barnyardgrass plant response rating,bamyardgrass; [3],0
same,Barnyardgrass plant response rating,bamyardgrass; [4],0
CCCCCCn1c(=O)on(C(=O)N(c2ccc(F)cc2F)C(C)C)c1=O [Compound 637],Corn plant response rating,corn; [5],0
same,Corn plant response rating,corn; [6],0
same,"Plant response rating, Corn",corn; [7],0
same,"Plant response rating, Corn",corn; [8],0
same,Sugarbeets plant response rating,sugar beet; [5],0
same,Sugarbeets plant response rating,sugar beet; [6],0
same,"Plant response rating, Sugarbeets",sugar beet; [7],3
same,"Plant response rating, Sugarbeets",sugar beet; [8],5
same,Soybean plant response rating,soybean; [5],0
same,Soybean plant response rating,soybean; [6],0
same,"Plant response rating, Soybean",soybean; [7],0
same,"Plant response rating, Soybean",soybean; [8],0
same,B. signalgrass plant response rating,surinam grass; [5],0
same,B. signalgrass plant response rating,surinam grass; [6],3
same,"Plant response rating, B. signalgrass",surinam grass; [7],8
same,"Plant response rating, B. signalgrass",surinam grass; [8],8
same,Blackgrass plant response rating,blackgrass; [5],2
same,Blackgrass plant response rating,blackgrass; [6],3
same,"Plant response rating, Blackgrass",blackgrass; [7],9
same,"Plant response rating, Blackgrass",blackgrass; [8],9
same,Cocklebur plant response rating,cocklebur; [5],0
same,Cocklebur plant response rating,cocklebur; [6],0
same,"Plant response rating, Cocklebur",cocklebur; [7],0
same,"Plant response rating, Cocklebur",cocklebur; [8],0
same,Velvetleaf plant response rating,velvetleaf; [5],0
same,Velvetleaf plant response rating,velvetleaf; [6],0
same,"Plant response rating, Velvetleaf",velvetleaf; [7],0
same,"Plant response rating, Velvetleaf",velvetleaf; [8],2
same,Giant foxtail plant response rating,giant foxtail; [5],9
same,Giant foxtail plant response rating,giant foxtail; [6],10
same,"Plant response rating, Giant foxtail",giant foxtail; [7],10
same,"Plant response rating, Giant foxtail",giant foxtail; [8],10
same,Morningglory plant response rating,morningglory; [5],0
same,Morningglory plant response rating,morningglory; [6],0
same,"Plant response rating, Morningglory",morningglory; [7],0
same,"Plant response rating, Morningglory",morningglory; [8],0
same,"Plant response rating, S. Flatsedge (0 to 10 scale, 0 is no effect, 10 is complete control)",smallflower flatsedge; [1],0
same,"S. Flatsedge plant response rating (0 to 10 scale, 0 is no effect, 10 is complete control)",smallflower flatsedge; [9],0
same,S. Flatsedge plant response rating,smallflower flatsedge; [10],0
same,S. Flatsedge plant response rating,smallflower flatsedge; [11],0
same,Crabgrass plant response rating,crabgrass; [5],9
same,Crabgrass plant response rating,crabgrass; [6],9
same,"Plant response rating, Crabgrass",crabgrass; [7],10
same,"Plant response rating, Crabgrass",crabgrass; [8],10
same,Bedstraw plant response rating,bedstraw; [5],0
same,Bedstraw plant response rating,bedstraw; [6],0
same,"Plant response rating, Bedstraw",bedstraw; [7],2
same,"Plant response rating, Bedstraw",bedstraw; [8],4
same,"Plant response rating, Ducksalad (0 to 10 scale, 0 is no effect, 10 is complete control)",duck salad; [1],0
same,"Ducksalad plant response rating (0 to 10 scale, 0 is no effect, 10 is complete control)",duck salad; [9],0
same,Ducksalad plant response rating,duck salad; [10],0
same,Ducksalad plant response rating,duck salad; [11],0
same,Rape plant response rating,rape; [5],0
same,Rape plant response rating,rape; [6],0
same,"Plant response rating, Rape",rape; [7],2
same,"Plant response rating, Rape",rape; [8],3
same,"Plant response rating, Barnyardgrass (0 to 10 scale, 0 is no effect, 10 is complete control)",bamyardgrass; [1],0
same,"Barnyardgrass plant response rating (0 to 10 scale, 0 is no effect, 10 is complete control)",bamyardgrass; [9],0
same,Barnyardgrass plant response rating,bamyardgrass; [10],0
same,Barnyardgrass plant response rating,bamyardgrass; [11],0
same,Wild oats plant response rating,wild oat; [5],0
same,Wild oats plant response rating,wild oat; [6],0
same,"Plant response rating, Wild oats",wild oat; [7],0
same,"Plant response rating, Wild oats",wild oat; [8],3
same,Nutsedge plant response rating,purple nutsedge; [5],0
same,Nutsedge plant response rating,purple nutsedge; [6],0
same,"Plant response rating, Nutsedge",purple nutsedge; [7],0
same,"Plant response rating, Nutsedge",purple nutsedge; [8],0
same,Wheat plant response rating,wheat; [5],0
same,Wheat plant response rating,wheat; [6],0
same,"Plant response rating, Wheat",wheat; [7],0
same,"Plant response rating, Wheat",wheat; [8],0
same,Redroot pigweed plant response rating,pigweed; [5],4
same,Redroot pigweed plant response rating,pigweed; [6],9
same,"Plant response rating, Redroot pigweed",pigweed; [7],7
same,"Plant response rating, Redroot pigweed",pigweed; [8],10
